Test results as given in the supplement of paper PMC10307832.

Experiments:
Test in all cases: relative viability (nuclei count vs DMSO), 5 days (fraction); higher = more cells survive
[1] = compound: CN(c1ncccc1CNc1nc(Nc2ccc3c(c2)CC(=O)N3)ncc1C(F)(F)F)S(C)(=O)=O + Cc1cc(Nc2cc(N3CCN(C)CC3)nc(Sc3ccc(NC(=O)C4CC4)cc3)n2)n[nH]1 [Tozasertib] (partner 0.1 µM)
Outline: (§1)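 Relative viability is defined as nuclei in treated wells over nuclei in vehicle wells. Duplicate plates were run and medians reported. Lung cancer cell lines in 1536-well plates were dosed by pin tool one day after seeding, with one drug or with a fixed anchor-drug dose plus five library-drug doses (not always all listed) in √10 steps, and nuclei were counted after 5 days.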

[2] = compound: CN(c1ncccc1CNc1nc(Nc2ccc3c(c2)CC(=O)N3)ncc1C(F)(F)F)S(C)(=O)=O + CCNC(=O)c1noc(-c2cc(C(C)C)c(O)cc2O)c1-c1ccc(CN2CCOCC2)cc1 [Luminespib] (partner 0.01 µM)
Outline: as §1

[3] = compound: CN(c1ncccc1CNc1nc(Nc2ccc3c(c2)CC(=O)N3)ncc1C(F)(F)F)S(C)(=O)=O + Cc1nc(Nc2ncc(C(=O)Nc3c(C)cccc3Cl)s2)cc(N2CCN(CCO)CC2)n1 [Dasatinib] (partner 0.075 µM)
Outline: as §1

[4] = compound: CN(c1ncccc1CNc1nc(Nc2ccc3c(c2)CC(=O)N3)ncc1C(F)(F)F)S(C)(=O)=O + Cc1nc(NC(=O)N2CCC[C@H]2C(N)=O)sc1-c1ccnc(C(C)(C)C(F)(F)F)c1 [Alpelisib] (partner 2 µM)
Outline: as §1

Row | Cell Line | relative viability ([1]; first compound 0.01 µM) | relative viability ([1]; first compound 0.03162 µM) | relative viability ([1]; first compound 0.1 µM) | relative viability ([1]; first compound 0.3162 µM) | relative viability ([1]; first compound 1 µM) | relative viability ([2]; first compound 0.01 µM) | relative viability ([2]; first compound 0.03162 µM) | relative viability ([2]; first compound 0.1 µM) | relative viability ([2]; first compound 0.3162 µM) | relative viability ([2]; first compound 1 µM) | relative viability ([3]; first compound 0.01 µM) | relative viability ([3]; first compound 0.03162 µM) | relative viability ([3]; first compound 0.1 µM) | relative viability ([3]; first compound 0.3162 µM) | relative viability ([3]; first compound 1 µM) | relative viability ([4]; first compound 0.01 µM) | relative viability ([4]; first compound 0.03162 µM) | relative viability ([4]; first compound 0.1 µM) | relative viability ([4]; first compound 0.3162 µM) | relative viability ([4]; first compound 1 µM)
1 | NCI-H358 | 0.0908 | 0.102 | 0.0923 | 0.103 | 0.0817 | 0.292 | 0.465 | 0.397 | 0.247 | 0.214 | 0.202 | 0.15 | 0.137 | 0.22 | 0.167 | 1.03 | 0.824 | 0.737 | 0.753 | 0.669
2 | NCI-H441 | 0.697 | 0.628 | 0.581 | 0.583 | 0.512 | 0.435 | 0.322 | 0.369 | 0.331 | 0.287 | 0.631 | 0.497 | 0.378 | 0.35 | 0.295 | 0.624 | 0.65 | 0.557 | 0.793 | 0.614
3 | NCI-H460 | 0.499 | 0.464 | 0.491 | 0.137 | 0.396 | 0.0312 | 0.0306 | 0.0284 | 0.0265 | 0.0325 | 0.62 | 0.505 | 0.462 | 0.456 | 0.436 | 0.519 | 0.577 | 0.487 | 0.443 | 0.508
4 | NCI-H520 | 0.485 | 0.474 | 0.467 | 0.546 | 0.429 | 0.209 | 0.242 | 0.205 | 0.2 | 0.183 | 0.21 | 0.221 | 0.151 | 0.152 | 0.155 | 0.985 | 0.894 | 0.829 | 0.96 | 1
5 | NCI-H596 | 0.886 | 0.938 | 0.899 | 0.813 | 0.632 | 0.943 | 1.02 | 0.951 | 1.06 | 0.968 | 0.558 | 0.623 | 0.54 | 0.608 | 0.5 | 0.58 | 0.48 | 0.482 | 0.48 | 0.392
6 | NCI-H647 | 0.315 | 0.224 | 0.498 | 0.353 | 0.248 | 0.127 | 0.163 | 0.122 | 0.103 | 0.119 | 0.146 | 0.193 | 0.127 | 0.151 | 0.125 | 1.09 | 0.919 | 1.14 | 1.02 | 1.17
7 | NCI-H650 | 0.713 | 0.712 | 0.637 | 0.622 | 0.608 | 0.773 | 0.779 | 0.655 | 0.728 | 0.654 | 0.445 | 0.459 | 0.434 | 0.434 | 0.456 | 1.01 | 1.23 | 0.945 | 0.832 | 0.725
8 | NCI-H661 | 0.294 | 0.334 | 0.361 | 0.372 | 0.353 | 0.854 | 0.928 | 0.837 | 0.871 | 0.876 | 0.973 | 0.809 | 0.885 | 0.782 | 0.83 | 0.817 | 0.695 | 0.546 | 0.85 | 0.5
9 | NCI-H727 | 0.675 | 0.549 | 0.571 | 0.543 | 0.52 | 0.407 | 0.232 | 0.289 | 0.25 | 0.367 | 0.363 | 0.287 | 0.271 | 0.272 | 0.264 | 0.638 | 0.606 | 0.565 | 0.448 | 0.444
10 | NCI-H838 | 0.27 | 0.336 | 0.261 | 0.272 | 0.19 | 0.409 | 0.255 | 0.242 | 0.31 | 0.263 | 0.27 | 0.279 | 0.217 | 0.305 | 0.205 | 0.961 | 1.17 | 1.01 | 0.862 | 0.705
11 | NCI-H1355 | 0.538 | 0.513 | 0.557 | 0.496 | 0.501 | 0.713 | 0.723 | 0.645 | 0.624 | 0.65 | 0.757 | 0.76 | 0.75 | 0.606 | 0.645 | 0.882 | 0.945 | 0.797 | 0.801 | 0.696
12 | NCI-H1395 | 0.724 | 0.806 | 0.784 | 0.856 | 0.782 | 0.766 | 0.703 | 0.682 | 0.558 | 0.658 | 0.461 | 0.374 | 0.359 | 0.414 | 0.386 | 0.996 | 1.08 | 0.997 | 1.06 | 1.06
13 | NCI-H1437 | 0.424 | 0.483 | 0.397 | 0.411 | 0.355 | 1.14 | 1.16 | 1.12 | 0.993 | 0.687 | 0.401 | 0.391 | 0.426 | 0.204 | 0.427 | 0.973 | 1.13 | 1.05 | 0.941 | 0.788
14 | NCI-H1651 | 0.67 | 0.719 | 0.671 | 0.681 | 0.515 | 1.03 | 0.957 | 0.708 | 0.688 | 0.667 | 0.47 | 0.374 | 0.38 | 0.316 | 0.282 | 0.992 | 1 | 0.873 | 0.899 | 0.916
15 | NCI-H1666 | 0.606 | 0.615 | 0.514 | 0.725 | 0.362 | 0.936 | 0.939 | 0.923 | 0.786 | 0.612 | 0.804 | 0.778 | 0.961 | 0.935 | 0.603 | 1.11 | 0.72 | 0.877 | 0.79 | 0.686
16 | NCI-H1734 | 0.239 | 0.273 | 0.27 | 0.269 | 0.258 | 0.198 | 0.178 | 0.184 | 0.227 | 0.18 | 0.423 | 0.436 | 0.399 | 0.339 | 0.34 | 0.665 | 0.778 | 0.666 | 0.631 | 0.641
